Reference: patent publication US5756423A, “Method of controlling plants by inhibition of farnesyl pyrophosphate synthase” (Zeneca Limited, priority 1997, dated 1998)
Where two headings read alike, the source gives them in different places.

Tests used:
[1] = tested on: velvetleaf (Abutilon theophrasti) (ABUTH); assay: post-emergent herbicidal test, velvetleaf; type: in vivo; conditions: Abutilon theophrasti, post-emergence, read-out: ABUTH percent control
Method in brief: (§1)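 Seedlings grown in sandy loam in a greenhouse (29/21 °C day/night, 14 h light) were sprayed post-emergence at 1 or 4 kg/ha in water with 0.5% Tween 20; grasses at 3–4 leaf, broadleaves at 1–2 leaf. Percent control versus untreated flats (0–100%) was rated 17–21 days later.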

[2] = tested on: barnyard grass (Enchinochloa crusgalli) (ECHCG); assay: post-emergent herbicidal test, barnyard grass; type: in vivo; conditions: Echinochloa crus-galli, post-emergence, read-out: ECHCG percent control
Method in brief: as §1

[3] = tested on: farnesyl pyrophosphate synthase in daffodil chromoplasts; assay: inhibition of farnesyl pyrophosphate synthase in daffodil chromoplasts (14C-isopentenyl pyrophosphate incorporation); type: biochemical, Narcissus pseudonarcissus; conditions: unit inferred, IC50 values in nM, read-out: IC50
Method in brief: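 Daffodil chromoplasts in pH 7.7 sucrose/MgCl2/HEPES buffer with cysteine, NaF and BSA, started with ~3 micromolar 14C-isopentenyl pyrophosphate, 30 min at 30° C. Butanol-extractable radioactivity counted by scintillation; % residual activity calculated against zero-time and end-point no-inhibitor controls.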

[4] = tested on: wild oat (Avena fatua) (AVEFA); assay: post-emergent herbicidal test, wild oat; type: in vivo; conditions: Avena fatua, post-emergence, read-out: AVEFA percent control
Method in brief: as §1

[5] = tested on: wild mustard (Brassica kaber), also known as Sinapis arvensis (SINAR); assay: post-emergent herbicidal test, wild mustard; type: in vivo; conditions: Brassica, post-emergence, read-out: SINAR percent control
Method in brief: as §1

[6] = tested on: morningglory (Ipomoea spp.) (IPOSS); assay: post-emergent herbicidal test, morningglory; type: in vivo; conditions: Ipomoea, post-emergence, read-out: IPOSS percent control
Method in brief: as §1

[7] = tested on: yellow nutsedge (Cyperus esculentus) (CYPES); assay: post-emergent herbicidal test, yellow nutsedge; type: in vivo; conditions: Cyperus, post-emergence, read-out: CYPES percent control
Method in brief: as §1

[8] = tested on: green foxtail (Setaria viridis) (SETVI); assay: post-emergent herbicidal test, green foxtail; type: in vivo; conditions: Setaria viridis, post-emergence, read-out: SETVI percent control
Method in brief: as §1

[9] = post-emergent, 1.0 kg/ha (*), 17-21 days after application

Compound	IC50 ([3]; Table I) [nM]	IC50 ([3]; Table II) [nM]	pest or weed control at 1000 g/ha [1, 9] [%]	pest or weed control at 1000 g/ha [2, 9] [%]	pest or weed control at 1000 g/ha [4, 9] [%]	pest or weed control at 1000 g/ha [5, 9] [%]	pest or weed control at 1000 g/ha [6, 9] [%]	pest or weed control at 1000 g/ha [7, 9] [%]	pest or weed control at 1000 g/ha [8, 9] [%]	pest or weed control at 1000 g/ha [1] [%]	pest or weed control at 1000 g/ha [2] [%]	pest or weed control at 1000 g/ha [4] [%]	pest or weed control at 1000 g/ha [5] [%]	pest or weed control at 1000 g/ha [6] [%]	pest or weed control at 1000 g/ha [7] [%]	pest or weed control at 1000 g/ha [8] [%]
O=P(O)(O)C(CNC1CC1)P(=O)(O)O [Compound 42]	27	27	–	–	–	–	–	–	–	10	95	100	100	90	20	95
CC(NCC(P(=O)(O)O)P(=O)(O)O)c1ccc(F)cc1 (stereo not drawn) [Compound 44]	2510	2510	60	100	90	90	10	60	100	–	–	–	–	–	–	–
O=P(O)(O)C(CNC1Cc2ccccc2C1)P(=O)(O)O [Compound 46]	440	440	5	15	50	5	0	10	20	–	–	–	–	–	–	–
CC1(C)CCCN(CC(P(=O)(O)O)P(=O)(O)O)C1 [Compound 47]	2280	2280	0	0	0	5	0	0	10	–	–	–	–	–	–	–
O=P(O)(O)C(CNC1CCc2ccccc21)P(=O)(O)O (stereo not drawn) [Compound 49]	1730	1730	5	50	60	10	10	10	15	–	–	–	–	–	–	–
CC1CCCC1NCC(P(=O)(O)O)P(=O)(O)O (stereo not drawn) [Compound 50]	232	232	5	60	50	85	5	5	85	–	–	–	–	–	–	–
CCCN(CCC(=O)O)CC(P(=O)(O)O)P(=O)(O)O [Compound 54]	479	479	0	0	0	10	5	0	10	–	–	–	–	–	–	–
Cc1cnn(CC(P(=O)(O)O)P(=O)(O)O)c1 [Compound 60]	1410	1410	10	30	10	20	5	0	30	–	–	–	–	–	–	–
CCCN(CCC(C)C)CC(P(=O)(O)O)P(=O)(O)O [Compound 61]	1000	1000	70	100	100	90	30	10	90	–	–	–	–	–	–	–
CCCCCN(CCC)CC(P(=O)(O)O)P(=O)(O)O [Compound 62]	186	186	15	85	100	85	30	10	95	–	–	–	–	–	–	–

Further compounds by falling IC50 ([3]; Table I), results first:

IC50 ([3]; Table I) [nM]	IC50 ([3]; Table II) [nM]	Compound	pest or weed control at 1000 g/ha [1, 9] [%]	pest or weed control at 1000 g/ha [2, 9] [%]	pest or weed control at 1000 g/ha [4, 9] [%]	pest or weed control at 1000 g/ha [5, 9] [%]	pest or weed control at 1000 g/ha [6, 9] [%]	pest or weed control at 1000 g/ha [7, 9] [%]	pest or weed control at 1000 g/ha [8, 9] [%]	pest or weed control at 1000 g/ha [1] [%]	pest or weed control at 1000 g/ha [2] [%]	pest or weed control at 1000 g/ha [4] [%]	pest or weed control at 1000 g/ha [5] [%]	pest or weed control at 1000 g/ha [6] [%]	pest or weed control at 1000 g/ha [7] [%]	pest or weed control at 1000 g/ha [8] [%]
135	135	CCCCCCN(CCC)CC(P(=O)(O)O)P(=O)(O)O [Compound 59]	30	90	85	90	20	5	95	–	–	–	–	–	–	–
112	112	CCC1CCCCN1CC(P(=O)(O)O)P(=O)(O)O (stereo not drawn) [Compound 53]	70	100	98	90	30	5	98	–	–	–	–	–	–	–
107	107	Cc1cn(CC(P(=O)(O)O)P(=O)(O)O)cn1 [Compound 58]	98	98	100	100	90	10	100	–	–	–	–	–	–	–
96	96	CC1CCCN(CC(P(=O)(O)O)P(=O)(O)O)C1C (stereo not drawn) [Compound 57]	80	100	100	100	90	15	100	–	–	–	–	–	–	–
93	93	CC1CCCN1CC(P(=O)(O)O)P(=O)(O)O (stereo not drawn) [Compound 43]	30	98	100	100	60	5	98	–	–	–	–	–	–	–
91	91	CCCN(CC(C)C)CC(P(=O)(O)O)P(=O)(O)O [Compound 51]	70	98	100	100	15	5	98	–	–	–	–	–	–	–
87	87	CCCCN(CCC)CC(P(=O)(O)O)P(=O)(O)O [Compound 52]	75	100	100	100	20	20	100	–	–	–	–	–	–	–
60	60	C=CCN(C)CC(P(=O)(O)O)P(=O)(O)O [Compound 41]	85	95	100	100	85	60	95	–	–	–	–	–	–	–
50	50	O=P(O)(O)C(CN1C=NCCC1)P(=O)(O)O [Compound 65]	100	100	95	100	100	5	100	–	–	–	–	–	–	–
32	32	CCC(C)NCC(P(=O)(O)O)P(=O)(O)O (stereo not drawn) [Compound 48]	60	98	100	100	95	50	95	–	–	–	–	–	–	–
32	32	CC[C@H](C)NCC(P(=O)(O)O)P(=O)(O)O [Compound 56]	95	100	100	100	98	60	100	–	–	–	–	–	–	–
26	26	O=P(O)(O)C(CN1CC=CCC1)P(=O)(O)O [Compound 45]	90	100	100	100	100	50	100	–	–	–	–	–	–	–
